Measurements from patent US20120214862A1, “MODULATION OF FACTOR 7 EXPRESSION” (ISIS Pharmaceuticals, Inc., priority 2009, published 2012).
In the oligonucleotide strings, read from the 5' end, every base follows the letter of its sugar. An asterisk marks phosphorothioate; unmarked linkages are phosphodiester. Other units and linkages are bracketed, terminal groups are in braces. A string of capitals states the bases alone. e = 2'-O-(2-methoxyethyl) (MOE); [5mC] = 5-methylcytosine; d = 2'-deoxy (DNA)

Assays:
Format in all cases: cell-based
human Factor 7 mRNA [1] = assay: Antisense inhibition of human Factor 7 mRNA in HepB3 cells, lipofectin, 50 nM, real-time RT-PCR; settings: HepB3 cells
Summary of the method: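 4,000 cells/well; ~24 h exposure; RNA isolated; probe set RTS 2927; normalised to RIBOGREEN® total RNA; % inhibition vs untreated.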

human Factor 7 mRNA [2] = assay: Dose-dependent antisense inhibition of human Factor 7 in HepB3 cells, transfection with lipofectin; settings: lipofectin, HepB3 cells, 16 hours
Summary of the method: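 HepB3 cells (4,000/well) lipofectin-transfected with antisense oligonucleotide at 3.125 or 6.25 up to 100 nM for ~16 h. Factor 7 mRNA measured by real-time RT-PCR with primer probe set RTS 2927, adjusted to RIBOGREEN total RNA; expressed as percent inhibition versus untreated control cells.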

human Factor 7 mRNA [3] = assay: Dose-dependent antisense inhibition of human Factor 7 in HepB3 cells, transfection with electroporation
Procedure: (§1) The gapmers were also transfected via electroporation and their dose-dependent inhibition of human Factor 7 mRNA was measured. Cells were plated at a density of 20,000 cells per well and transfected via electroporation with 3.125 μM, 6.25 μM, 12.5 μM, 25 μM, 50 μM, and 100 μM concentrations of antisense oligonucleotide, as specified in Table 15. After a treatment period of approximately 16 hours, RNA was isolated from the cells and Factor 7 mRNA levels were measured by quantitative real-time PCR. Human Factor 7 primer probe set RTS 2927 was used to measure mRNA levels. Factor 7 mRNA levels were adjusted according to total RNA content, as measured by RIBOGREEN®. Results are presented as percent inhibition of Factor 7, relative to untreated control cells.
as §1, with “Cells were” for “The gapmers were also transfected via electroporation and their dose-dependent inhibition of human Factor 7 mRNA was measured. Cells were”, “in Table 16. After a” for “in Table 15. After a”, “cells and human Factor 7” for “cells and Factor 7”

[4] = 3.125 μM, 16 hours (Example 7, Table 15)
[5] = 3.125 μM, 16 hours (Example 8, Table 16)
[6] = 6.25 μM, 16 hours (Example 7, Table 15)
[7] = 6.25 μM, 16 hours (Example 8, Table 16)
[8] = 12.5 μM, 16 hours (Example 7, Table 15)
[9] = 12.5 μM, 16 hours (Example 8, Table 16)
[10] = 25 μM, 16 hours (Example 7, Table 15)
[11] = 25 μM, 16 hours (Example 8, Table 16)
[12] = 50 μM, 16 hours (Example 7, Table 15)
[13] = 50 μM, 16 hours (Example 8, Table 16)
[14] = 100 μM, 16 hours (Example 7, Table 15)
[15] = 100 μM, 16 hours (Example 8, Table 16)

Substance	percent inhibition of Factor 7 mRNA, relative to untreated control cells (human Factor 7 mRNA [2]; 3.125 nM) [%]	percent inhibition of Factor 7 mRNA, relative to untreated control cells (human Factor 7 mRNA [2]; 12.5 nM) [%]	percent inhibition of Factor 7 mRNA, relative to untreated control cells (human Factor 7 mRNA [2]; 25 nM) [%]	percent inhibition of Factor 7 mRNA, relative to untreated control cells (human Factor 7 mRNA [2]; 50 nM) [%]	percent inhibition of Factor 7 mRNA, relative to untreated control cells (human Factor 7 mRNA [2]; 100 nM) [%]	percent inhibition of Factor 7 mRNA, relative to untreated control cells (human Factor 7 mRNA [2]) [%]	percent inhibition of Factor 7 mRNA, relative to untreated control cells (human Factor 7 mRNA [3]; [4]) [%]	percent inhibition of Factor 7 mRNA, relative to untreated control cells (human Factor 7 mRNA [3]; [5]) [%]	percent inhibition of Factor 7 mRNA, relative to untreated control cells (human Factor 7 mRNA [3]; [6]) [%]	percent inhibition of Factor 7 mRNA, relative to untreated control cells (human Factor 7 mRNA [3]; [7]) [%]	percent inhibition of Factor 7 mRNA, relative to untreated control cells (human Factor 7 mRNA [3]; [8]) [%]	percent inhibition of Factor 7 mRNA, relative to untreated control cells (human Factor 7 mRNA [3]; [9]) [%]	percent inhibition of Factor 7 mRNA, relative to untreated control cells (human Factor 7 mRNA [3]; [10]) [%]	percent inhibition of Factor 7 mRNA, relative to untreated control cells (human Factor 7 mRNA [3]; [11]) [%]	percent inhibition of Factor 7 mRNA, relative to untreated control cells (human Factor 7 mRNA [3]; [12]) [%]	percent inhibition of Factor 7 mRNA, relative to untreated control cells (human Factor 7 mRNA [3]; [13]) [%]	percent inhibition of Factor 7 mRNA, relative to untreated control cells (human Factor 7 mRNA [3]; [14]) [%]	percent inhibition of Factor 7 mRNA, relative to untreated control cells (human Factor 7 mRNA [3]; [15]) [%]	further results
422183 (antisense eG*e[5mC]*eG*d[5mC]*d[5mC]*dA*d[5mC]*d[5mC]*d[5mC]*dG*d[5mC]*d[5mC]*dG*dG*d[5mC]*dT*d[5mC]*eT*eG*e[5mC]) [compound 422183]	28	56	78	84	88	37	16	2	28	3	37	24	44	50	59	64	71	71	% Inhibition of human Factor 7 mRNA levels (human Factor 7 mRNA [1]; gapmers targeted to nucleobases 13760 to 13789 of SEQ ID NO: 1 (Table 10)): 79%
422215 (antisense eG*eT*eT*d[5mC]*dT*dG*d[5mC]*dA*dG*dG*dA*dG*d[5mC]*dG*dG*d[5mC]*d[5mC]*eT*eA*eA) [compound 422215]	13	54	65	84	82	30	11	–	9	–	31	–	50	–	68	–	84	–	% Inhibition of human Factor 7 mRNA levels (human Factor 7 mRNA [1]; gapmers (5-10-5, 3-14-3, 2-13-5 MOE) targeted to nucleobases 4868 to 4899 of SEQ ID NO: 1): 73%
422229 (antisense eA*eT*dG*d[5mC]*dA*dT*dG*dG*dT*dG*dA*dT*dG*d[5mC]*dT*eT*e[5mC]*eT*eG*eA) [compound 422229]	21	53	72	86	92	32	21	30	30	45	33	67	44	79	65	90	77	92	% Inhibition of human Factor 7 mRNA levels (human Factor 7 mRNA [1]; gapmers targeted to nucleobases 15188 to 15211 of SEQ ID NO: 1 (Table 13)): 71%
